Seven compounds from patent US8796463B2 (priority 2009, dated 2014) can be followed below.

“And” between values parts separate entries of the source, which are not always exact repeats. Equal entries are not always repeated.

In series [1] the test system is Plasmopara viticola. Nature of the series: Plasmopara test (grapevines) / preventive. The class given is in vivo. The settings on record: preventive spray, 10 ppm of active ingredient, evaluated 6 days after inoculation. Here is the method: Plasmopara Test (Grapevines)/Preventive
To produce a suitable preparation of active compound, 1 part by weight of active compound is mixed with the stated amounts of solvent and emulsifier, and the concentrate is diluted with water to the desired concentration.
To test for preventive activity, young plants are sprayed with the preparation of active compound at the stated rate of application. After the spray coating has dried on, the plants are inoculated with an aqueous spore suspension of Plasmopara viticola and then remain for 1 day in an incubation cabinet at approximately 20° C. and a relative atmospheric humidity of 100%. The plant is subsequently placed for 4 days in a greenhouse at approximately 21° C. and a relative atmospheric humidity of approximately 90%. The plants are then misted and placed for 1 day in an incubation cabinet.
The test is evaluated 6 days after the inoculation. 0% means an efficacy which corresponds to that of the untreated control, while an efficacy of 100% means that no disease is observed.

Series [2] has as its system Phytophthora infestans. The series is classed as in vivo. The settings on record: tomato, preventive spray, 100 ppm of active ingredient, evaluated 7 days after inoculation.
The nature of series [3]: log P by HPLC on reversed phase columns (EEC directive 79/831 Annex V.A8). The settings on record: for logp: pH 2.7, 0.1% formic acid in water / acetonitrile gradient; for chromatographic logP: reversed phase HPLC column, pH 2.7, formic acid eluent, reported in preparation example, read-out: log P(HCOOH). The series is classed as physicochemical. Here is the method: Measurement of log P values was performed according EEC directive 79/831 Annex V.A8 by HPLC (High Performance Liquid Chromatography) on reversed phase columns with the following method:
measurement of LC-MS was done at pH 2.7 with 0.1% formic acid in water and with acetonitrile (contains 0.1% formic acid) as eluent with a linear gradient from 10% acetonitrle to 95% acetonitrile.
Calibration was done with not branched alkan2-ones (with 3 to 16 carbon atoms) with known log P-values (measurement of log P values using retention times with linear interpolation between successive alkanones). lambda-maX-values were determined using UV-spectra from 200 nm to 400 nm and the peak values of the chromatographic signals.

Series [4] relates to Pythium ultimum. Nature of the series: Pythium test (cotton) / seed treatment. The series is classed as in vivo. The settings on record: 10 g/dt seed of active ingredient, emerged seedlings after 7 days. Here is the method:
Pythium Test (Cotton)/Seed Treatment
The test is performed under greenhouse conditions.
Cotton seeds, treated with the active compound or compound combinations, solved in N-methyl-2-pyrrolidon and diluted with water to the desired dosages, were sown in 6*6 cm pots containing 4 cm of a 1:1 mix of steamed field soil and sand.
Perlite was incubated with mycelium fragments of Pythium ultimum. 1 ml of infected perlite was scattered between the treated cotton seeds. Seeds were then covered by light expanded clay aggregate. Pots were incubated in the greenhouse 7 days at 20° C. and 80% relative humidity.
Assessment consisted of counting of emerged seedlings. 0% means an efficacy which corresponds to that of the control, while an efficacy of 100% means that all seedlings have emerged.

Turning to `Cn1nnnc1C(=NOCc1csc(NC(=O)C2COc3ccccc3O2)n1)c1ccccc1` (stereo not drawn) [Example 11], the Efficacy % was found to be 98% in series [1], 95% in series [2] and 77% in series [4]. In series [3], this compound showed a logp of 3.46.
`Cn1nnnc1C(=NOCc1csc(NC(=O)C2CCc3ccccc3O2)n1)c1ccccc1` (stereo not drawn) [Example 10, N-{4-[({[(1-methyl-1H-tetrazol-5-yl)(phenyl)methylene]amino}oxy)methyl]-1,3-thiazol-2-yl}chromane-2-carboxamide]: the results for the Efficacy % in series [1], in series [2] and in series [4] were 100%, 100% and 86%, respectively. Besides, in series [3], the chromatographic logP was determined as 3.78.
In the case of `Cn1nnnc1C(=NOCc1cccc(NC(=O)C2Cc3ccccc3O2)n1)c1ccccc1` (stereo not drawn) [Example 41, N-{6-[({[(1-methyl-1H-tetrazol-5-yl)(phenyl)methylene]amino}oxy)methyl]pyridin-2-yl}-2,3-dihydro-1-benzofuran-2-carboxamide], the Efficacy % in series [1] was 97% and 91%; in series [2], 89%; in series [4], 92%. Besides, the chromatographic logP in series [3] turned out to be 3.67.
For `Cc1nnnn1C(=NOCc1cccc(NC(=O)C2Cc3ccccc3O2)n1)c1ccccc1` (stereo not drawn) [Example 56], the Efficacy % turned out to be 85% in series [1] and 100% in series [2]. This compound displayed a logp in series [3] of 3.71.
The matching figures for `Cc1cccc2c1OC(C(=O)Nc1cccc(CON=C(c3ccccc3)c3nnnn3C)n1)CO2` (stereo not drawn) [Example 8]: 87%, 95% and 4.08.
With `Cc1nnnn1C(=NOCc1csc(NC(=O)C2Cc3ccccc3O2)n1)c1ccccc1` (stereo not drawn) [Example 45], the figures for the Efficacy % in series [1] and in series [2] were 96% and 98%, respectively. Moreover, in series [3], the logp came to 3.44.
The matching figures for `COc1ccc2c(c1)OC(C(=O)Nc1nc(CON=C(c3ccccc3)c3nnnn3C)cs1)CC2` (stereo not drawn) [Example 40]: 96%, 98% and 3.78.
